Patent US20110016537A1, “Cellular model of tauopathies for lead identification and drug discovery” (Georg-August-Universitat Gottingen Stifung offentl, priority 2003, published 2011)

Legend:
[1] = test system: SHSY5Y neuroblastoma cells; experiment: Apoptosis detection (TUNEL, activated caspase-3 immunolabeling) in SHSY5Y cells; assay type: cell-based, human; settings: for cells showing signs of apoptosis (TUNEL): 48 h. post transfection
Source text: (§1) In order to analyse apoptosis induction in SHSY5Y neuroblastoma cells transfected with wild-type and triple mutant tau, the TUNEL method was used to label fragmented nuclear DNA, a characteristic marker of apoptosis. This was combined with the assessment of a second pathomorphological criteria: shrunken cell body with sparse cytosol and rounded cell morphology. Such a combination of criteria is considered sufficient to identify positively the occurrence of apoptosis (Stadelmann and Lassmann (2000) Cell Tissue Res. 301, 19-31). Since 48 hours after transfection a significant decrease in cell number and apparent cell degeneration is observed, this timepoint was chosen for the comparative analysis. At this timepoint the mode of degeneration, if apoptotic, should have been obvious. […] In FIG. 5a, apoptotic and non-apoptotic M123-transfected cells are shown, as well as a positive 50 nM staurosporin-treated neuroblastoma control. […] Activated caspase-3 immunolabeling, however, detected 18.66±0.93% apoptotic cells in M123 transfected neuroblastoma cells vs. 3.62±1.87% in wild-type transfected cells (p<0.01, Mann-Whitney U-test). The reason for this atypical apoptosis presentation in our system is unknown and awaits further elucidation. Next, in order to assess the real biological significance of apoptosis in the process of cell elimination, specific cell-permeable caspase-3 inhibitor and cytochrome c release inhibitor (both from Calbiochem, Germany) were used. Cells were treated 24 h. post transfection immediately after counting their reference number and incubated with apoptosis inhibitors until 60 h. post transfection in order to cover the time window with the highest decrease in cell number. […]

CHO cells [2] = experiment: Morphological aggregate formation after transfection in CHO cells; assay type: cell-based, Chinese hamster; settings: 24 hrs post transfection
Method: On the contrary—in areas with bulky aggregation a deficit of the normal cytoskeletal configuration was observed. In order to visualize a difference in the biophysical properties of tau and aggregating mutants, FRAP (fluorescent recovery after photobleaching) analysis was performed in CHO-cells 24 hours after transfection, using wild-type tau and the triple (M123) mutant. Tau tagged with GFP represents a perfect tool for aggregation examination in living cells in real time. Apparent differences were found between wild-type tau and the triple mutant.
Transfection of cells was performed, using the Effectene Transfection Kit (Qiagen, Germany) according to the manufacturers instructions. Following addition of 4-8 μl enhancer solution, 0.5-1 μg DNA were incubated with 10 μl Effectene and 85 μl transfection buffer. All plasmids were purified using EndoFree Maxi Kit (Qiagen, Germany).
Confocal imaging was performed with a Leica TCS SP2 confocal system fitted with an AOBS (acousto-optical beam splitter) (Leica, Germany). The objectives used were 63× water or oil immersion; adjustments were as follows: Beam Expander 3, PMT—600-700 V, pinhole 1-1.4 airy disc, zoom—variable. Luminophore excitation was performed with an Argon-ion laser at 488 nm (for GFP), GreNe laser at 543 nm (for Cy3) and HeNe 643 nm (for Cy5).

[3] = test system: SHSY5Y neuroblastoma cells; experiment: Phosphoepitope immunocytochemistry (AT8, AT100, AT180) in SHSY5Y neuroblastoma cells; assay type: cell-based, human
Method: In order to examine the neurotoxicity of the mutant tau variants in human neuronal cell line, SHSY5Y neuroblastomas were used and the cell number of each preparation at 48 and 72 hours post transfection was normalized to the cell number in the same dish at 24 hours. […] The same effect was observed by the double mutants. Further, the presence of two specific pathological phosphoepitopes was tested using phosphospecific antibodies—AT8 (S202/T205 specific) and AT100 (T212/S214), the latter being exclusively specific for Alzheimer's disease NFTs and generally considered as the only AD-specific antibody by experts in the field of neuropathology. […] In the mutants (especially in the double and triple mutants) there was a very strong AT8 labeling, reaching 83.24±5.45% in M123 (FIG. 4c). […] This was accompanied by early phosphorylation, colocalizing with the initial tau aggregates. […] This mutant completely lacked a fragment which contains most phosphorylation sites of the projection domain (including the corresponding sites for AT8, AT100, AT180, AT270), thus confirming the independence of aggregation and phosphorylation. […] Another phosphoepitope that is highly specific for AD—T212/S214 (recognized by AT100 antibody), was present especially in double and triple mutants (FIG. 4d). In contrast to AT8, this immunolabeling was not observed in all aggregates, but only in those with bulky rounded or oval shape. […] Obviously, the formation of the T212/S214 phosphoepitope requires, apart from S202/T205 phosphoepitope formation (Schneider et al. (1999) Biochemistry 38, 3549-3558), also a specific conformational modification, apparently achieved with increase of mutant epitope number. In the M123 mutant 22.13±2.87% were also AT180 immunopositive (phosphoepitope T231) vs. none in wild-type tau transfectants (not shown). In order to assess the relative contribution of the aggregation, S202/T205 and T212/S214 phosphorylation to cell toxicity, multiple correlation analyses were performed. […]

CHO cells [4] = experiment: AT8-detected phosphorylation in CHO cells; assay type: cell-based, Chinese hamster; settings: CHO cells (data not shown)
[5] = test system: SHSY5Y neuroblastoma cells; experiment: Cell survival of M123-transfected SHSY5Y cells with apoptosis inhibitors; assay type: cell-based, human; settings: inhibitors on M123-transfected cells from 24 h. until 60 h. post transfection
Source text: as §1, with “elucidation.” for “elucidation. Next, in order to assess the real biological significance of apoptosis in the process of cell elimination, specific cell-permeable caspase-3 inhibitor and cytochrome c release inhibitor (both from Calbiochem, Germany) were used. Cells were treated 24 h. post transfection immediately after counting their reference number and incubated with apoptosis inhibitors until 60 h. post transfection in order to cover the time window with the highest decrease in cell number.”

Compound | cells showing signs of apoptosis (TUNEL) [1] | formation of morphologically apparent aggregates (CHO cells [2]) | AT100 (T212/S214) immunolabeling [3] | AT180 (phosphoepitope T231) immunopositive cells [3] | AT8 (S202/T205) immunolabeled cells ([3]; 36 h. after transfection) [%] | AT8-detected phosphorylation (CHO cells [4]) | apoptotic cells by activated caspase-3 immunolabeling [1] [%] | cell survival [5] [%]
CN[C@@H]1C[C@H]2O[C@@](C)([C@@H]1OC)n1c3ccccc3c3c4c(c5c6ccccc6n2c5c31)C(=O)NC4 [staurosporin] | TUNEL-positive nuclei | – | – | – | – | – | – | –
wild-type tau: wild-type human tau 441, SEQ ID NO.:25, used as control [reference compound] | 5.97±1.54% | normal MT (microtubule) association without aggregates | did not label | none | 9.17±2.3 | only a slight pattern | 3.62±1.87 | 87.86±12.4
